Experiments:
Chinese sprangletop = assay: Test Example 3: herbicidal effect by foliage application, Wagner pot (Table 18, symbol D); format: in vivo, chinese sprangletop (Leptochloa chinensis)
How it was run: (§1)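 Plants were sown in alluvial soil held under 0.1–0.5 cm standing water and grown 14 days in a greenhouse at 25–30 °C. An emulsifiable formulation, water-diluted to the set dose, was then sprayed onto the foliage, and effects were scored three weeks later using previously defined criteria.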

redroot pigweed = assay: Test Example 5: herbicidal effect by foliage application, plastic box (Table 20, symbol N); format: in vivo, redroot pigweed (Amaranthus retroflexus); conditions: foliage application, three weeks after application
How it was run: (§2)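 Sow seeds spot-wise in sterilized diluvial soil; cover with ~1.5 cm soil. Grow 14 days in greenhouse, 25° C. to 30° C. Spray foliage with emulsion diluted to predetermined amount. Rate effect after 3 weeks.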

windgrass = assay: Test Example 5: herbicidal effect by foliage application, plastic box (Table 20, symbol L); format: in vivo, windgrass (Apera spica-venti); conditions: foliage application, three weeks after application
How it was run: as §2

wild oat = assay: Test Example 5: herbicidal effect by foliage application, plastic box (Table 20, symbol I); format: in vivo, wild oat (Avena fatua); conditions: foliage application, three weeks after application
How it was run: as §2

lambsquarters = assay: Test Example 5: herbicidal effect by foliage application, plastic box (Table 20, symbol O); format: in vivo, lambsquarters (Chenopodium album); conditions: foliage application, three weeks after application
How it was run: as §2

false cleavers = assay: Test Example 5: herbicidal effect by foliage application, plastic box (Table 20, symbol Q); format: in vivo, false cleavers (Galium spurium); conditions: foliage application, three weeks after application
How it was run: as §2

rice flat sedge = assay: Test Example 3: herbicidal effect by foliage application, Wagner pot (Table 18, symbol E); format: in vivo, rice flat sedge (Cyperus iria)
How it was run: as §1

barnyard grass [1] = assay: Test Example 5: herbicidal effect by foliage application, plastic box (Table 20, symbol H); format: in vivo, barnyard grass (Echinochloa crus-galli); conditions: foliage application, three weeks after application
How it was run: as §2

green foxtail = assay: Test Example 5: herbicidal effect by foliage application, plastic box (Table 20, symbol G); format: in vivo, green foxtail (Setaria viridis); conditions: foliage application, three weeks after application
How it was run: as §2

barnyard grass [2] = assay: Test Example 3: herbicidal effect by foliage application, Wagner pot (Table 18, symbol H); format: in vivo, barnyard grass (Echinochloa crus-galli)
How it was run: as §1

chickweed = assay: Test Example 5: herbicidal effect by foliage application, plastic box (Table 20, symbol P); format: in vivo, common chickweed (Stellaria media); conditions: foliage application, three weeks after application
How it was run: as §2

velvetleaf = assay: Test Example 5: herbicidal effect by foliage application, plastic box (Table 20, symbol M); format: in vivo, velvetleaf (Abutilon theophrasti); conditions: foliage application, three weeks after application
How it was run: as §2

persian speedwell = assay: Test Example 5: herbicidal effect by foliage application, plastic box (Table 20, symbol R); format: in vivo, Persian speedwell (Veronica persica); conditions: foliage application, three weeks after application
How it was run: as §2

southern crabgrass = assay: Test Example 5: herbicidal effect by foliage application, plastic box (Table 20, symbol F); format: in vivo, southern crabgrass (Digitaria ciliaris); conditions: foliage application, three weeks after application
How it was run: as §2

Italian ryegrass = assay: Test Example 5: herbicidal effect by foliage application, plastic box (Table 20, symbol K); format: in vivo, Italian ryegrass (Lolium multiflorum); conditions: foliage application, three weeks after application
How it was run: as §2

blackgrass = assay: Test Example 5: herbicidal effect by foliage application, plastic box (Table 20, symbol J); format: in vivo, blackgrass (Alopecurus myosuroides); conditions: foliage application, three weeks after application
How it was run: as §2

| SMILES | herbicidal effect on D (Chinese sprangletop), rating 0-5 (Chinese sprangletop; 320 g/ha) | herbicidal effect grade, N: redroot pigweed (redroot pigweed; 320 g/ha) | herbicidal effect grade, L: windgrass (windgrass; 320 g/ha) | herbicidal effect grade, I: wild oat (wild oat; 320 g/ha) | herbicidal effect grade, O: lambsquarters (lambsquarters; 320 g/ha) | herbicidal effect grade, Q: false cleavers (false cleavers; 320 g/ha) | herbicidal effect on E (rice flat sedge), rating 0-5 (rice flat sedge; 320 g/ha) | herbicidal effect grade, H: barnyard grass (barnyard grass [1]; 320 g/ha) | herbicidal effect grade, G: green foxtail (green foxtail; 320 g/ha) | herbicidal effect on H (barnyard grass), rating 0-5 (barnyard grass [2]; 320 g/ha) | herbicidal effect grade, P: chickweed (chickweed; 320 g/ha) | herbicidal effect grade, M: velvetleaf (velvetleaf; 320 g/ha) | herbicidal effect grade, R: persian speedwell (persian speedwell; 320 g/ha) | herbicidal effect grade, F: southern crabgrass (southern crabgrass; 320 g/ha) | herbicidal effect grade, K: Italian ryegrass (Italian ryegrass; 320 g/ha) | herbicidal effect grade, J: blackgrass (blackgrass; 320 g/ha) | other results |
| --- | --- | --- | --- | --- | --- | --- | --- | --- | --- | --- | --- | --- | --- | --- | --- | --- | --- |
| Cc1nn(C)c(=O)c(-c2c(-c3ccccc3Oc3ccccc3)sc3ccccc23)c1O [1-033] | 0 (Herbicidal rate of 5% or less (almost no effect)) | 0 (Herbicidal rate of 5% or less (almost no effect)) | 0 (Herbicidal rate of 5% or less (almost no effect)) | 0 (Herbicidal rate of 5% or less (almost no effect)) | 0 (Herbicidal rate of 5% or less (almost no effect)) | 4 (Herbicidal rate of 70% or more and less than 90%) | 1 (Herbicidal rate of 5% or more and less than 20%) | 2 (Herbicidal rate of 20% or more and less than 40%) | 0 (Herbicidal rate of 5% or less (almost no effect)) | 1 (Herbicidal rate of 5% or more and less than 20%) | 1 (Herbicidal rate of 5% or more and less than 20%) | 0 (Herbicidal rate of 5% or less (almost no effect)) | 3 (Herbicidal rate of 40% or more and less than 70%) | 3 (Herbicidal rate of 40% or more and less than 70%) | 0 (Herbicidal rate of 5% or less (almost no effect)) | 0 (Herbicidal rate of 5% or less (almost no effect)) |  |
| CCS(=O)(=O)c1ccccc1-c1sc2ccccc2c1-c1c(O)c(C)nn(C)c1=O [1-038] |  |  |  |  |  |  |  |  |  |  |  |  |  |  |  |  | herbicidal effect on D (Chinese sprangletop), rating 0-5 (Chinese sprangletop; 123 g/ha): 4 (Herbicidal rate of 70% or more and less than 90%); herbicidal effect grade, N: redroot pigweed (redroot pigweed; 123 g/ha): 0 (Herbicidal rate of 5% or less (almost no effect)); herbicidal effect grade, L: windgrass (windgrass; 123 g/ha): 0 (Herbicidal rate of 5% or less (almost no effect)); herbicidal effect grade, I: wild oat (wild oat; 123 g/ha): 0 (Herbicidal rate of 5% or less (almost no effect)); herbicidal effect grade, O: lambsquarters (lambsquarters; 123 g/ha): 0 (Herbicidal rate of 5% or less (almost no effect)); herbicidal effect grade, Q: false cleavers (false cleavers; 123 g/ha): 3 (Herbicidal rate of 40% or more and less than 70%); herbicidal effect on E (rice flat sedge), rating 0-5 (rice flat sedge; 123 g/ha): 3 (Herbicidal rate of 40% or more and less than 70%); herbicidal effect grade, H: barnyard grass (barnyard grass [1]; 123 g/ha): 0 (Herbicidal rate of 5% or less (almost no effect)); herbicidal effect grade, G: green foxtail (green foxtail; 123 g/ha): 0 (Herbicidal rate of 5% or less (almost no effect)); herbicidal effect on H (barnyard grass), rating 0-5 (barnyard grass [2]; 123 g/ha): 0 (Herbicidal rate of 5% or less (almost no effect)); herbicidal effect grade, P: chickweed (chickweed; 123 g/ha): 5 (Herbicidal rate of 90% or more (almost completely withered)); herbicidal effect grade, M: velvetleaf (velvetleaf; 123 g/ha): 0 (Herbicidal rate of 5% or less (almost no effect)); herbicidal effect grade, R: persian speedwell (persian speedwell; 123 g/ha): 0 (Herbicidal rate of 5% or less (almost no effect)); herbicidal effect grade, F: southern crabgrass (southern crabgrass; 123 g/ha): 0 (Herbicidal rate of 5% or less (almost no effect)); herbicidal effect grade, K: Italian ryegrass (Italian ryegrass; 123 g/ha): 0 (Herbicidal rate of 5% or less (almost no effect)); herbicidal effect grade, J: blackgrass (blackgrass; 123 g/ha): 0 (Herbicidal rate of 5% or less (almost no effect)) |
| Cc1nn(C)c(=O)c(-c2c(-c3ccc(N(C)C)cc3)sc3ccccc23)c1O [1-039] |  |  |  |  |  |  |  |  |  |  |  |  |  |  |  |  | herbicidal effect on D (Chinese sprangletop), rating 0-5 (Chinese sprangletop; 295 g/ha): 1 (Herbicidal rate of 5% or more and less than 20%); herbicidal effect grade, N: redroot pigweed (redroot pigweed; 295 g/ha): 5 (Herbicidal rate of 90% or more (almost completely withered)); herbicidal effect grade, L: windgrass (windgrass; 295 g/ha): 0 (Herbicidal rate of 5% or less (almost no effect)); herbicidal effect grade, I: wild oat (wild oat; 295 g/ha): 0 (Herbicidal rate of 5% or less (almost no effect)); herbicidal effect grade, O: lambsquarters (lambsquarters; 295 g/ha): 4 (Herbicidal rate of 70% or more and less than 90%); herbicidal effect grade, Q: false cleavers (false cleavers; 295 g/ha): 0 (Herbicidal rate of 5% or less (almost no effect)); herbicidal effect on E (rice flat sedge), rating 0-5 (rice flat sedge; 295 g/ha): 3 (Herbicidal rate of 40% or more and less than 70%); herbicidal effect grade, H: barnyard grass (barnyard grass [1]; 295 g/ha): 0 (Herbicidal rate of 5% or less (almost no effect)); herbicidal effect grade, G: green foxtail (green foxtail; 295 g/ha): 4 (Herbicidal rate of 70% or more and less than 90%); herbicidal effect on H (barnyard grass), rating 0-5 (barnyard grass [2]; 295 g/ha): 3 (Herbicidal rate of 40% or more and less than 70%); herbicidal effect grade, P: chickweed (chickweed; 295 g/ha): 5 (Herbicidal rate of 90% or more (almost completely withered)); herbicidal effect grade, M: velvetleaf (velvetleaf; 295 g/ha): 3 (Herbicidal rate of 40% or more and less than 70%); herbicidal effect grade, R: persian speedwell (persian speedwell; 295 g/ha): 5 (Herbicidal rate of 90% or more (almost completely withered)); herbicidal effect grade, F: southern crabgrass (southern crabgrass; 295 g/ha): 3 (Herbicidal rate of 40% or more and less than 70%); herbicidal effect grade, K: Italian ryegrass (Italian ryegrass; 295 g/ha): 2 (Herbicidal rate of 20% or more and less than 40%); herbicidal effect grade, J: blackgrass (blackgrass; 295 g/ha): 1 (Herbicidal rate of 5% or more and less than 20%) |
| CCCC(=O)Oc1c(C)nn(C)c(=O)c1-c1c(-c2ccc(OC)cc2OC)sc2ccccc12 [1-071] | 0 (Herbicidal rate of 5% or less (almost no effect)) | 0 (Herbicidal rate of 5% or less (almost no effect)) | 0 (Herbicidal rate of 5% or less (almost no effect)) | 0 (Herbicidal rate of 5% or less (almost no effect)) | 0 (Herbicidal rate of 5% or less (almost no effect)) | 0 (Herbicidal rate of 5% or less (almost no effect)) | 0 (Herbicidal rate of 5% or less (almost no effect)) | 0 (Herbicidal rate of 5% or less (almost no effect)) | 0 (Herbicidal rate of 5% or less (almost no effect)) | 2 (Herbicidal rate of 20% or more and less than 40%) | 2 (Herbicidal rate of 20% or more and less than 40%) | 3 (Herbicidal rate of 40% or more and less than 70%) | 1 (Herbicidal rate of 5% or more and less than 20%) | 0 (Herbicidal rate of 5% or less (almost no effect)) | 0 (Herbicidal rate of 5% or less (almost no effect)) | 0 (Herbicidal rate of 5% or less (almost no effect)) |  |

Source: US20230085307A1, “PYRIDAZINONE COMPOUND AND HERBICIDE” (NISSAN CHEMICAL CORPORATION, priority 2019, published 2023)
